Reference: patent publication US10696946B2, “T-REG cell expansion” (The Board of Trustees of the University of Illinois, priority 2013, dated 2020)
Read-outs that look alike come from different tables or passages of the source.

What was measured:
[1] = tested on: Treg cell proliferation; assay: Pathway inhibitors on OX40L, JAG1 and IL-2-induced Treg proliferation (flow cytometry); format: cell-based, mouse; settings: CD4+ T-cells from NOD mice pre-treated with inhibitor
Description: FIG. 21. Role of NF-κB and STAT5 signaling pathways in OX40L-JAG1-IL-2 induced Treg proliferation and Foxp3 expression. (A) CD4+ T-cells from NOD mice were pre-treated with pharmacological inhibitors of indicated cell signaling pathways and treated with soluble OX40L-JAG1-IL-2. Effect of these pathway inhibitors on Treg cell proliferation was measured by flow cytometry analysis. (B) RT-qPCR analysis showing effect of inhibitors of NF-κB and STAT5 signaling pathways on Foxp3 mRNA expression (Values represent Mean±SEM, n=3, *p<0.05, **p<0.01, ***p<0.001 Vs control, ^#p<0.05, ^##p<0.01 Vs None-OX40L-JAG1-IL-2). (C) Western blot analysis showing effect of inhibitors of NF-κ B and STAT5 signaling pathways on Foxp3 protein expression. Western blot analysis of the time dependent effect of soluble OX40L-JAG1-IL-2 on (D) Foxp3 expression, (E) NF-κ B p65 phosphorylation and (F) STAT5 phosphorylation in CD4+ T-cells. […]
CD4+ T-cells (1×10^6 cells/ml) were treated with soluble OX40 L, JAG1 and IL-2 as mentioned above. […] Foxp3, pp65 and pSTAT5 signal intensities were normalized to β-actin, total p65 and STAT5 signal intensities and expressed as fold change over respective controls.

[2] = tested on: Foxp3; assay: Pathway inhibitors on OX40L, JAG1 and IL-2-induced Foxp3 expression (RT-qPCR, Western blot); format: cell-based, mouse; settings: at 24 h
Description: CD4+ T-cells (1×10^6 cells/ml) were treated with soluble OX40 L, JAG1 and IL-2 as mentioned above. In some experiments cells were pre-treated with inhibitors of Notch (GSI-R04929097, Selleckchem), NF-κ B (BAY-11-7082, Sigma-Aldrich) and STAT5 (CAS 285986-31-4, Calbiochem) signaling for 2 h and co-treated with soluble ligands for different time intervals. Cells were washed with PBS, and lysed in Laemmli buffer (Biorad) and resolved in 10% SDS-PAGE gels. Proteins were transferred to PVDF membranes (Biorad), blocked with 5% skimmed milk and incubated with primary anti-mouse Foxp3 (1:1000, ebioscience), anti-mouse phospho p65 (Ser536) and phospho STAT5 (Tyr694) (1:500, Cell Signaling Technology) antibodies. Blots were then washed, incubated with secondary anti-rabbit IgG-HRP and developed using ECL detection kit (Pierce Scientific). […] Foxp3, pp65 and pSTAT5 signal intensities were normalized to β-actin, total p65 and STAT5 signal intensities and expressed as fold change over respective controls.
For some experiments, resting and proliferating Tregs were sorted based on cell trace violet dilution. […] Gene expression values were calculated by comparative Δ Ct method after normalization to GAPDH internal control and expressed as fold change over respective controls. […] Data were analyzed using the R-package software. […]

[3] = tested on: Foxp3+ Tregs; assay: GM-BMDC / CD4+ T-cell co-culture, Treg proliferation by CFSE dilution (FACS); format: cell-based, mouse; settings: for Treg proliferation: GM-BMDCs alone ~13.2±0.4%
Description: Each in vitro experiment was conducted in triplicate with T-cells, SpDCs and GM-BMDCs pooled from 3 mice. GM-BMDCs (5×10^4) and CD11c^+ SpDCs were cultured with CD4^+, CD4^+CD25^− and CD4^+CD25^+ T-cells at a ratio of 1:2 for 5 days. For proliferation assays, T-cell subpopulations were labelled with CFSE at 10 μM according to manufacturer's instruction (Invitrogen, Carlsbad, Calif.) before co-culturing them with DCs. Some cultures were supplemented with IL-2 (10 U/ml) (R&D Systems), antiOX40L (up to 10 μg/ml) antibody, OX40 agonist (OX-86, 5-10 μg/ml), anti-Jagged-1 (10-20 μg/ml) antibody or anti-Notch3 (10-20 μg/ml) antibody. For blocking experiments with anti-OX40L or anti-Jagged-1 antibodies, GM-BMDCs were pre-treated with the indicated antibodies for 30 min at 37° C. and then used in co-culture with naive CD4^+ T-cells. For blocking experiments with anti-Notch3 antibody, CD4+ T-cells isolated from mouse splenocytes were first treated with anti-Notch3 antibody at two different concentrations (10 and 20 μg/ml) or with 20 μg/ml of an anti-Notch 1 antibody, incubated at 37° C. for 30 minutes and then co-cultured with GM-BMDCs/SpDCs for 5 days. Some co-cultures were supplemented with different concentrations of gamma-secretase inhibitors (GSI) S-2188 (5 and 10 μM) or R04929097 (200 nM-5 μM).
Freshly isolated and ex vivo cultured cells were washed with PBS-BSA-EDTA or PBS containing 0.5% BSA. For surface staining, the cells were labelled with one of the following: specified FITC, PE, APC conjugated antibodies for 30 min, anti-CD4-eFluor-780, CD4-FITC (eBioscience), anti-CD25-PE, anti-CTLA4-PE, anti-CD39-PE, anti-Helios-PE, anti-TIGIT-PE or fixed, permeabilized, and stained with anti-, Anti-Ki67-PE, anti-Foxp3-APC and isotype controls antibodies (eBioscience) (1:100) in dark. […] Stained cells were washed three times and analyzed by Cyan flow cytometer (Beckman/Coulter) and data analysis was done using Summit v4.3 software.

[4] = tested on: Notch signaling; assay: GSI-treated CD4+ T-cells from NOD mice co-cultured with G-BMDCs, proliferation by flow cytometry; format: cell-based, mouse; settings: indicated concentrations, 5 days with G-BMDCs
Description: FIG. 13. […] (A) CD4+ T-cells from NOD mice were treated with γ-secretase inhibitor (GSI)-R042929097 at indicated concentrations and then co-cultured with G-BMDCs for 5 days. Extent of proliferation was measured by flow cytometry (n=3). (B) Notch3-OX40−, […], Notch3-OX40+, Notch3+OX40+ subsets of CD4^+CD25^+ Treg cells sorted out and co-cultured with G-BMDCs for 5 days and extent of proliferation was analyzed (n=2).
Bone marrow cells were cultured in complete RPMI medium containing 10% heat-inactivated FBS in the presence of 20 ng/ml GM-CSF for 3 days. On days 4 and 6, fresh medium containing 20 ng/ml GM-CSF was added. Non-adherent CD11c^+ DCs from eight day old cultures were enriched using anti-CD11c coated magnetic beads according to the manufacturer's directions (Miltenyi Biotech, Auburn, Calif.). Specific sub-populations of GM-BMDCs and CD4+CD25+ T-cells were sorted using a MoFlo flow cytometer (Beckman/Coulter, Ranch Cucamonga, Calif.) following staining with appropriate antibodies (OX40L, Jagged-1, CD4, CD25). To obtain GFP+ and GFP− cells, total CD4+ cells were first separated using CD4 microbeads (Miltenyi Biotech) and then the cells were sorted based on GFP expression using a MoFlo flow cytometer (Beckman/Coulter). […]

[5] = tested on: NOD mice; settings: cited from earlier work

O=C(N/N=C/c1coc2ccccc2c1=O)c1cccnc1 [STAT5 inhibitor]
OX40L, JAG1 and IL-2-induced Treg proliferation [1]: significantly blocked | OX40L, JAG1 and IL-2-induced Foxp3 expression [2]: only moderately inhibited

CC(C)(C(=O)NCC(F)(F)C(F)(F)F)C(=O)N[C@@H]1C(=O)Nc2ccccc2-c2ccccc21 [R04929097]
Treg proliferation ([3]; 250 nM): 5.2±0.4% | Treg proliferation ([3]; 5 μM): 1.7±0.3% | GM-BMDC mediated Treg proliferation ([3]; different concentrations (FIG. 8)): abrogated | inhibition of Notch signaling / Treg proliferation [4]: dose-dependent manner

Cc1ccc(S(=O)(=O)/C=C/C#N)cc1 [NF-κB inhibitor]
OX40L, JAG1 and IL-2-induced Treg proliferation [1]: significantly blocked | OX40L, JAG1 and IL-2-induced Foxp3 expression [2]: significantly down regulated

B1: OX40L: tumor necrosis factor superfamily member with co-stimulatory function, binds OX40 (protein, UniProt P23510 1-183, looked up)
Tumor necrosis factor ligand …: MERVQPLEENVGNAARPRFERNKLLLVASVIQGLGLLLCFTYICLHFSALQVSHRYPRIQSIKVQFTEYKKEKGFILTSQKEDEIMKVQNNSVIINCDGFYLISLKGYFSQEVNISLHYQKDEEPLFQLKKVRSVNSLMVASLTYKDKVYLNVTTDNTSLDDFHVNGGELILIHQNPGEFCVL
CD4+CD25+Foxp3+ Treg cells ([5]; 6-week old NOD mice): increase | development of diabetes ([5]; 6-week old NOD mice): protect | development of diabetes ([5]; 12-week old NOD mice): accelerated diabetes development
